Assay results taken from publication PMC3850452, “Glycolic acid production in the engineered yeasts Saccharomyces cerevisiae and Kluyveromyces lactis” (Microbial Cell Factories, 2013).
Each block holds one molecule with its values, some of them ahead of it.

Columns and labels:
GLYR1 = target: T1, GLYR1 (Arabidopsis thaliana, UniProt Q9LSV0); experiment: NADPH consumption at […] nm, Michaelis-Menten fit; format: biochemical; conditions: crude extract of overexpressing yeast; 200 μM NADPH; 50 mM sodium phosphate pH 7; 30 °C
T1 construct: full-length gene codon optimised for yeast, TPI1 promoter multicopy plasmid (p2159/pYX212), expressed in S. cerevisiae; crude cell extract, no tag told
T1 sequence (Q9LSV0 1-289): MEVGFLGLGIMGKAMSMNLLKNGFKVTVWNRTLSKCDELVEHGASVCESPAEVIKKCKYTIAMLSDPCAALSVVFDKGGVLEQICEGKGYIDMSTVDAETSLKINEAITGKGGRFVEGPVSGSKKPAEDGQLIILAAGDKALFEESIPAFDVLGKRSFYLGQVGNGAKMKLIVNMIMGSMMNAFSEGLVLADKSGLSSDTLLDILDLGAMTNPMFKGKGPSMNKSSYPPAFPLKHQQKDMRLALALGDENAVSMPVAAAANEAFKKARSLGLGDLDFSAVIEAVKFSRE

[1] = substrate: O=CC(=O)O; experiment: cells, lysate or membranes; format: biochemical, Saccharomyces cerevisiae; conditions: crude extract of overexpressing yeast, 200 μM NADPH, 50 mM sodium phosphate pH 7, 30 °C

Km (GLYR1): 38.8 µM
Molecule: O=CC(=O)O [glyoxylic acid]

B1: Gor1p (Saccharomyces cerevisiae S288C) (protein)
chain: MSKKPIVLKLGKDAFGDQAWGELEKIADVITIPESTTREQFLREVKDPQNKLSQVQVITRTARSVKNTGRFDEELALALPSSVVAVCHTGAGYDQIDVEPFKKRHIQVANVPDLVSNATADTHVFLLLGALRNFGIGNRRLIEGNWPEAGPACGSPFGYDPEGKTVGILGLGRIGRCILERLKPFGFENFIYHNRHQLPSEEEHGCEYVGFEEFLKRSDIVSVNVPLNHNTHHLINAETIEKMKDGVVIVNTARGAVIDEQAMTDALRSGKIRSAGLDVFEYEPKISKELLSMSQVLGLPHMGTHSVETRKKMEELVVENAKNVILTGKVLTIVPELQNEDWPNESKPLV
notes: endogenous gene overexpressed from multicopy plasmid in S. cerevisiae; crude cell extract, no tag told
Km [1]: 1900 µM
